Test results published in patent US10729749B2, “Neurodegenerative disorders” (priority 2014, dated 2020).
Ends that are not written are not given here.

How the values were obtained:
[1] = system: basal forebrain; assay: VSDI of evoked responses in basal forebrain brain slices; design: species or system rat; conditions: T30 2 μM & peptide 4 μM in perfusate; 30V electrical stimulation
Description: Coronal rat brain slices were prepared according to the procedure described in (Badin et al., 2013) but this time containing basal forebrain (+0.70 and −0.26 millimetres (mm) from bregma (Paxinos and Watson, 1998). Optical imaging using voltage-sensitive dyes was then performed as previously described (Badin et al., 2013, Neuropharmacology. 73C:10-18).
VSDI data were recorded in 4×4 mm 2-dimensional images, equivalent to 100×100 pixels—each pixel being 40×40 micrometres (μm), from which critical data were extracted. VSDI data was not gathered throughout the experimental run, but in fact was recorded in discrete periods of time 15 minutes in length. The inter-stimulus interval (ISI) between stimulations was 28 seconds and therefore, every recording epoch consisted of 32 successive stimulations. The data from all 32 stimulations were then averaged into a single file for each experimental condition and analysed using a VSDI data analysis toolbox specially made for MatLab (Bourgeois et al., 2014, PLoS One. 9:e108686). […] In order to quantify VSDI data however, the area under the curve was calculated (summed fluorescence fractional change, FIG. 11-22) between the moment of stimulation (t=0) and 280 ms after that; this method of quantification takes into account all the components of the immediate and longer-latency response. […]

[2] = system: cells; conditions: inventors' previous work; cited from earlier work
[3] = system: rat brain slices; conditions: inventors' previous work, cited from earlier work
[4] = biological target: α7 nicotinic-receptor (Homo sapiens, UniProt P36544); conditions: inventors' previous work; cited from earlier work
Chain of α7 nicotinic-receptor (P36544 23-502): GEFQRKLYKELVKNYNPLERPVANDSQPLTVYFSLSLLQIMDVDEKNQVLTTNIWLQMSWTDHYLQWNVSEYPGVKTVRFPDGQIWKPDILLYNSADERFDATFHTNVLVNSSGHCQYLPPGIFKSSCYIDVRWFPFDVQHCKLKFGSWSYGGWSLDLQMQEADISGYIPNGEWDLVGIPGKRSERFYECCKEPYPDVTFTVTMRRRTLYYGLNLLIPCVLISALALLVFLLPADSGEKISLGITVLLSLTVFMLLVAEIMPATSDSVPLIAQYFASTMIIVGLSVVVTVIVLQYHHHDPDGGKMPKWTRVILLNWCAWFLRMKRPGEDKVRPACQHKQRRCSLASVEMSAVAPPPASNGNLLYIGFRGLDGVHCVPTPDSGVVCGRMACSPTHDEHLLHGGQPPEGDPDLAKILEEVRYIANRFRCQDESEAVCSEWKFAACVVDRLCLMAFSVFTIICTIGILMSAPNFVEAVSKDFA

[5] = system: PC12 cells; assay: Cell viability assay (Cell Counting Kit-8); type: cell-based; conditions: toxic peptide alone; compared to untreated control;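 further: PC12 cells in 96-well plates, WST-8 turned into formazan by cellular dehydrogenases, absorbance read at 450 nm after 2 h with the reagent, signal proportional to living cell number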
Description: (§1) A Cell Counting Kit-8 (CCK-8) was used as an improvement of the SRB technique used before. By utilizing the highly water-soluble tetrazolium salt WST-8, CCK-8 produces a water-soluble formazan dye upon reduction in the presence of an electron carrier. WST-8 is reduced by dehydrogenases in cells to give a yellow colored product (formazan), which is soluble in the tissue culture medium. The amount of the formazan dye generated by the activity of dehydrogenases in cells is directly proportional to the number of living cells. PC12 cells are plated in 200 μl of complete growth medium the day before the experiment in 96 well plates. […] Subsequently, 100 μl of growth medium is removed and 10 μl of CCK-8 (Cell Counting Kit-8) solution is added. The plate is incubated for 2 hours in the incubator and then placed in the absorbance plate reader. The absorbance must be measured at 450 nm.

[6] = system: PC12 cells; assay: Value coefficient (AChE release vs PC12 cell viability) and filter selection; type: cell-based
Description: AChE release vs PC12 cell viability (for which there is a significant negative correlation); • 2. In silico binding to the allosteric site of the α7 nicotinic-receptor; • 3. Calcium influx into PC12 cells; and • 4. Peptide size.

[7] = system: PC12 cells; assay: Acetylcholinesterase activity assay (AChE release from PC12 cells, Ellman reagent); type: cell-based; conditions: T30 5 μM + small peptide 0.5 μM; % AChE release compared to untreated control
Description: AChE activity was measured using the Ellman reagent that measures the presence of thiol groups as a result of AChE activity. Cells were plated the day before the experiment as for the cell viability assay. […] The Ellman reagent was prepared as a mixture of the 3 solutions in a ratio 33(A):3(B):4(C). Absorbance measurements were taken at regular intervals (3, 10, 30 and 60 mins) across experiments at 405 nm.

[8] = Cell viability assay (Cell Counting Kit-8); type: cell-based; conditions: T30 5 μM + small peptide 0.5 μM; % PC12 cell viability compared to untreated control;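 further: PC12 cells in 96-well plates, WST-8 turned into formazan by cellular dehydrogenases, absorbance read at 450 nm after 2 h with the reagent, signal proportional to living cell number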
Description: as §1

[9] = system: PC12 cells; assay: Calcium fluorometry (Fluo-8, acetylcholine-induced calcium influx); type: cell-based; design: Calcium: scale not given here
Description: A final criterion used to determine active peptides is the amount of calcium influx into PC12 cells caused by the peptide. The calcium influx value can be calculated as described in the methods section. The calcium value corresponds to the result from the experiment when applying T30 or Aβ alone or in conjunction with the small peptides. The control value for these experiments is based on the calcium influx induced by acetylcholine alone. Preferably, the peptide, derivative or analogue thereof has a calcium influx value of less than 120, and more preferably a value of 97-120.
PC12 cells are plated in 200 μl of complete growth medium the day before the experiment in 96 well plates. On the day of the experiment, the Fluo-8 solution (Abcam) is prepared (as per provider protocol). Subsequently, 100 μl of growth medium is removed and 100 μl of Fluo-8 solution is added. Treatments with T30 or Aβ in conjunction with NBP-14 or small peptides are added and incubated for 30 minutes in the incubator and 30 minutes room temperature.
After 1 hour, the plate is placed in the fluorescence plate reader (Fluostar). Before reading the fluorescence, acetylcholine (ACh) 100 μM is prepared and placed in the Fluostar injector. For each well, the reading will be formed by a basal fluorescence followed by acetylcholine injection that will induce an increase of calcium via nicotinic receptors. The effects of the peptides are then evaluated.

| Substance | reversal of T30-induced changes in evoked responses [1] | compensatory AChE release [2] | protection of cells from toxicity [2] | effect on Ca2+ concentrations ([3]; given alone) | effect on β-amyloid action on Ca2+ concentrations [3] | action at the α7 nicotinic-receptor [4] | % PC12 cell viability [5] | value coefficient x ([6]; toxic peptide alone, x>1.1 means toxicity) | AChE [7] | viability [8] | Calcium ([9]; T30 + small peptide, calcium influx value, control based on acetylcholine alone) | dose-dependent effect on calcium potentiation against T30 ([9]; dose-dependent experiments, FIGS. 8 and 9) | Value AChE/Viability ([6]; T30 5 μM + small peptide 0.5 μM, 1.0 to 1.1 = protective, control = 1) | neuroprotective agent against T30 when all four filters are taken into consideration ([6]; filters: value coefficient, in silico binding, calcium influx, peptide size) |
| --- | --- | --- | --- | --- | --- | --- | --- | --- | --- | --- | --- | --- | --- | --- |
| NBP14: cyclic peptide based on T14 sequence AEFHRWSSYMVHWK, cyclated via the terminal Alanine and Lysine residues (head-to-tail cyclised; listed as Homo sapiens) | significantly reverse any kind of change induced by T30 | blocks compensatory AChE release induced by the toxicity of linear T14 and T30 | protect cells from linear T14, T30 and β-amyloid toxicity | no significant effects on Ca^2+ concentrations in rat brain slices | blocks the effects of β-amyloid | true antagonist of the α7 nicotinic-receptor | – | – | – | – | – | – | – | – |
| KAEFHRWSSYMVHWKNQFDHYSKQDRCSDL [T30, reference compound] | – | – | – | – | – | – | 74.309% | 2.28 | – | – | – | – | – | – |
| KAEFHR [NBP-603, KAEFHR] | some significant effect in reversing the changes induced by T30 | – | – | – | – | – | – | – | 96.06% | 94.8% | 119.86 | protect against T30 effects | 1.01 | neuroprotective agents against T30 |
